Results taken from publication PMC9503459, “Antifungal Activity, Structural Stability, and Immunomodulatory Effects on Human Immune Cells of Defensin from the Lentil Lens culinaris” (Membranes, 2022).
Where “and” joins values, the source holds several entries; their conditions need not be identical. Equal values may be shown once. No end group written: not given here.

What was measured:
THP-1 cells = assay: Resazurin-based cytotoxicity assay, THP-1; type: cell-based, human; details: 0.2 to 50 μM, 24 h
Protocol: The cytotoxic properties of Lc-def and melittin as a control were investigated also by resazurin-based cell cytotoxicity assay. PBMCs and THP-1 cells were seeded in 96-well plates at 2 × 10^6 and 1 × 10^6 cells per well, respectively, in RPMI-1640 supplemented with 10% FBS, and kept in CO2-incubator. After 24 h serial two-fold dilutions of compounds in culture medium were then added to final concentrations from 0.2 to 50 μM. After 24 h of incubation with the peptides, resazurin (Sigma) was added at a final concentration of 0.7 mM, and the plates were incubated overnight (16 h). Fluorescent resorufin was registered using 535/595 filter at PlateReader AF2200 (Eppendorf, Hamburg, Germany). Untreated corresponding cells were used as negative controls. The cell viability was calculated as: cell viability (%) = (Fsample/Fcontrol) × 100%. The experiment was carried out twice in triplicate.

[1] = test system: primary CD14+ blood monocytes; assay: Cytokine response by multiplex xMAP, monocytes; type: cell-based, human; details: 2 µM, 24 h
Protocol: Colorectal adenocarcinoma Caco-2 cell line (ATCC HTB-37) was cultured in complete DMEM/F12 (1:1) medium containing 10% fetal bovine serum (FBS, Gibco) and 1X antibiotic-antimycotic solution (1XAAS, Invitrogen, Waltham, MA, USA). The acute monocytic leukemia THP-1 line (ATCC TIB-202) was cultured in complete RPMI-1640 medium, containing 10% FBS, 1XAAS, and […]. THP-1 cells were differentiated into pro-inflammatory macrophages (Mφ1) with phorbol 12-myristate 13-acetate (Sigma-Aldrich) for 24 h and subsequently polarized with lipopolysaccharide from E. coli (Sigma-Aldrich) and rhIFN-γ (Sigma-Aldrich) for another 48 h according to previously reported protocol. All cells were cultured in a humidified CO2 incubator (5% CO2, 37 °C). Primary peripheral blood mononuclear cells (PBMCs) collected from a healthy donor were purchased from American Type Culture Collection (ATCC PCS-800-011). CD4^+ T-helper and CD8^+ T cytotoxic cells were isolated from PBMCs by magnetic separation with mouse anti-human CD4-PE (clone 13B8.2, Beckman Coulter Diagnostics, Pasadena, CA, USA) and CD8-PE (clone REA734, Miltenyi Biotec, Bergisch Gladbach, Germany), Anti-PE MicroBeads (Miltenyi Biotec), and LS Separation Columns (Miltenyi Biotec). Isolated CD4^+ and CD8^+ cells were expanded separately with Dynabeads™ Human T-Expander CD3/CD28 (Gibco, Waltham, MA, USA) in RPMI-1640 supplemented with 10% FBS, 1XAAS and 100 U/mL rh-IL-2 (Gibco). Regulatory CD4^+ FoxP3^+ T cells (Tregs) were isolated from PBMCs by magnetic separation with CD4^+CD25^+ Regulatory T Cell Isolation Kit, human (Miltenyi Biotec). Primary CD14^+ blood monocytes were isolated from PBMCs by adherence according to standard technique. Monocyte-derived mature dendritic cells (moDCs) were obtained from CD14^+ blood monocytes according to the previously reported protocol. Briefly, blood monocytes were incubated in complete RPMI-1640 medium, containing 10% FBS, 1XAAS, 800 U/mL rhGM-CSF (Sci-Store, Russia, Moscow) and 500 U/mL rhIL-4 (Sci-Store) for 3 days. Fresh complete RPMI-1640 medium with rhGM-CSF and rhIL-4 was added to the culture on day 3. On day 5, fresh complete RPMI-1640 containing 100 U/mL rhTNF-α (Sigma) as well as 800 U/mL rhGM-CSF and 500 U/mL rhIL-4 was added and the culture was incubated for another 4 days until full maturation.
Caco-2 cells were seeded into the wells of a 48-well plate, coated with 0.1% bovine collagen (Sigma-Aldrich) for 24 h, 3 weeks before the experiment with complete DMEM/F12 (1:1) medium renewal every 2–3 days. Monocytes, moDCs, CD4^+ T-helper and CD8^+ T cytotoxic cells, Mφ1, and Regulatory CD4^+ FoxP3^+ T cells were seeded into the wells of 48-well plates in the complete RPMI-1640 medium supplemented with 10% Human AB serum (HABS, Capricorn Scientific, Ebsdorfergrund, Germany) and 1XAAS 24 h prior to the experiment; medium in Caco-2-containing wells was also replaced with the same medium. After 24 h, half of the medium in each well was replaced by fresh complete RPMI-1640 medium with 10% HABS, supplemented with 4 µM of Lc-def for the sample wells or fresh medium alone for the control wells. Cell cultures were kept in CO2-incubator (5% CO2, 37 °C) for another 24 h. Culture supernatants were collected 24 h later and stored at −70 °C degrees less than one month prior to the analytes assessment. […]

## Lc-def: defensin from lentil Lens culinaris seeds (UniProt:B3F051), recombinant, overexpressed in Escherichia coli (KTCENLSDSFKGPCIPDGNCNKHCKEKEHLLSGRCRDDFRCWCTRNC; disulfide (positions not given here); ends not checked; also: disulfide bonds present, pairing not given here; UniProt B3F051 28-74, looked up)
THP-1 cells
  cytotoxic activity: did not show any cytotoxic activity
[1]
  EGF: 11.56 pg/mL
  Eotaxin: <3.23↓ pg/ml
  FGF-2: 44.46 pg/mL
  FLT-3L: 1.04 pg/mL
  Fractalkine: <23.19↓ pg/ml
  G-CSF: 22.68 pg/mL
  GM-CSF: 3.49 pg/mL
  GROa: 777.01 pg/mL
  IFNa2: 21.43 pg/mL
  IFNg: <1.99↓ pg/ml
  IL-1RA: 10.83 pg/mL
  IL-1a: 17.69 pg/mL
  IL-1b: <18.72↓ pg/ml
  IL-2: 2.62 pg/mL
  IL-3: <0.48↓ pg/ml
  IL-4: 0.58 pg/mL
  IL-5: <0.24↓ pg/ml
  IL-6: 378 pg/mL and 378.12 pg/mL
  IL-7: <0.33↓ pg/ml
  IL-8: 5662 pg/mL
  IL-9: 1.6 pg/mL
  IL-10: 8.4 pg/mL
  IL-12 (p40): 19.56 pg/mL
  IL-12 (p70): 2.22 pg/mL
  IL-13: 15.11 pg/mL
  IL-15: 3.53 pg/mL
  IL-17A: 2.6 pg/mL
  IL-17E/IL-25: <20.59↓ pg/ml
  IL-17F: <16.96↓ pg/ml
  IL-18: 2.04 pg/mL
  IL-22: 17.03 pg/mL
  IL-27: 60.93 pg/mL
  IP-10: 529.41 pg/mL
  M-GSF: 38.29 pg/mL
  MCP-1: 5545 pg/mL
  MCP-3: 326 pg/mL and 326.33 pg/mL
  MDC: 995.8 pg/mL
  MIG: 1406 pg/mL
  MIP-1a: 14.98 pg/mL
  MIP-1b: 42.32 pg/mL
  PDGF-AB/BB: 943.35 pg/mL
  RANTES: 5.41 pg/mL
  TGF-a: 1.79 pg/mL
  TNFa: 27.51 pg/mL
  TNFb: 1.77 pg/mL
  VEGFa: 21.72 pg/mL
  sCD40L: 65.54 pg/mL
